{
  "source": "patent US20250352520A1",
  "about": "“USE OF DEXPRAMIPEXOLE FOR THE TREATMENT OF EOSINOPHILIC COPD” (Areteia Therapeutics, Inc., priority 2024, published 2025)",
  "tested_on": "blood eosinophils",
  "method": "This was a Phase II, open-label, multicenter study in approximately 30 participants aged≥40 to ≤80 years of age with a diagnosis of COPD and a blood eosinophil count of ≥0.30×10^9/L at screening. Some patients with blood eosinophil counts of 0.25-0.299×10^9/L at screening also were included. Participants were treated with 150 mg dexpramipexole BID. […] Informed consent was obtained from participants before the initiation of any study-specific procedures. This study was conducted at approximately 30 sites in the US.\nThere were three phases to the study: • Screening Phase (Screening Visit through Baseline) Participants underwent screening to assess whether they satisfy the eligibility criteria. […] After the collection of all Baseline assessments, participants began investigational treatment (dexpramipexole 150 mg), BID for 16 weeks. The Week 16 Visit was the Primary Outcome Visit for the study. • Follow-up Phase (Conclusion of Week 16 assessments through Week 20) During this phase, participants had one final phone visit to collect final safety assessments following cessation of investigational product.\nThe primary endpoint of this study was geometric mean change in the blood AEC from Baseline to Week 16.\nBlood eosinophil counts were obtained at every onsite study visit. Samples were collected between 6 AM and 12 noon to minimize diurnal variation.",
  "key": {"[1]": {"conditions": "Subject 10001-001-0001 (<50% AEC reduction at Week 16), Week 4"}, "[2]": {"conditions": "Subject 10001-001-0001 (<50% AEC reduction at Week 16), Week 8"}, "[3]": {"conditions": "Subject 10001-001-0001 (<50% AEC reduction at Week 16), Week 12"}, "[4]": {"conditions": "Subject 10001-001-0001 (<50% AEC reduction at Week 16), Week 16"}, "[5]": {"conditions": "Subject 10001-001-0002 (>=50% AEC reduction at Week 16), Week 4"}, "[6]": {"conditions": "Subject 10001-008-0002 (<50% AEC reduction at Week 16), Week 4"}, "[7]": {"conditions": "Subject 10001-008-0002 (<50% AEC reduction at Week 16), Week 8"}, "[8]": {"conditions": "Subject 10001-008-0002 (<50% AEC reduction at Week 16), Week 12"}, "[9]": {"conditions": "Subject 10001-008-0002 (<50% AEC reduction at Week 16), Week 16"}, "[10]": {"conditions": "Subject 10001-010-0005 (<50% AEC reduction at Week 16), Week 4"}, "[11]": {"conditions": "Subject 10001-010-0005 (<50% AEC reduction at Week 16), Week 8"}, "[12]": {"conditions": "Subject 10001-010-0005 (<50% AEC reduction at Week 16), Week 12"}, "[13]": {"conditions": "Subject 10001-010-0005 (<50% AEC reduction at Week 16), Week 16"}, "[14]": {"conditions": "Subject 10001-022-0001 (>=50% AEC reduction at Week 16), Week 4"}, "[15]": {"conditions": "Subject 10001-022-0001 (>=50% AEC reduction at Week 16), Week 8"}, "[16]": {"conditions": "Subject 10001-022-0001 (>=50% AEC reduction at Week 16), Week 12"}, "[17]": {"conditions": "Subject 10001-022-0001 (>=50% AEC reduction at Week 16), Week 16"}, "[18]": {"conditions": "Subject 10001-022-0006 (<50% AEC reduction at Week 16), Week 4"}, "[19]": {"conditions": "Subject 10001-022-0006 (<50% AEC reduction at Week 16), Week 12"}, "[20]": {"conditions": "Subject 10001-022-0006 (<50% AEC reduction at Week 16), Week 16"}, "[21]": {"conditions": "Subject 10001-024-0002 (>=50% AEC reduction at Week 16), Week 4"}, "[22]": {"conditions": "Subject 10001-024-0002 (>=50% AEC reduction at Week 16), Week 8"}, "[23]": {"conditions": "Subject 10001-024-0002 (>=50% AEC reduction at Week 16), Week 12"}, "[24]": {"conditions": "Subject 10001-024-0002 (>=50% AEC reduction at Week 16), Week 16"}},
  "note": "Like-named read-outs stand apart in the source and are kept apart here.",
  "data": [
    {"smiles": "CCCN[C@@H]1CCc2nc(N)sc2C1", "note": "[Dexpramipexole, (6R)-2-amino-4,5,6,7-tetrahydro-6-(propylamino)benzothiazole]", "values": [
      {"measurement": "AEC Ratio to Baseline", "setting": "[1]", "value": 0.70},
      {"measurement": "AEC Result", "setting": "[1]", "value": 290, "unit": "cells/uL"},
      {"measurement": "AEC Ratio to Baseline", "setting": "[2]", "value": 0.56},
      {"measurement": "AEC Result", "setting": "[2]", "value": 235, "unit": "cells/uL"},
      {"measurement": "AEC Ratio to Baseline", "setting": "[3]", "value": 0.54},
      {"measurement": "AEC Result", "setting": "[3]", "value": 224, "unit": "cells/uL"},
      {"measurement": "AEC Ratio to Baseline", "setting": "[4]", "value": 0.62},
      {"measurement": "AEC Result", "setting": "[4]", "value": 260, "unit": "cells/uL"},
      {"measurement": "AEC Ratio to Baseline", "setting": "[5]", "value": 0.80},
      {"measurement": "AEC Result", "setting": "[5]", "value": 298, "unit": "cells/uL"},
      {"measurement": "AEC Result", "setting": "Subject 10001-001-0002 (>=50% AEC reduction at Week 16), Week 8", "value": 0, "unit": "cells/uL"},
      {"measurement": "AEC Ratio to Baseline", "setting": "Subject 10001-001-0002 (>=50% AEC reduction at Week 16), Week 8, zero value replaced with 5 cells", "value": "0.01(a)"},
      {"measurement": "AEC Result", "setting": "Subject 10001-001-0002 (>=50% AEC reduction at Week 16), Week 12", "value": 0, "unit": "cells/uL"},
      {"measurement": "AEC Ratio to Baseline", "setting": "Subject 10001-001-0002 (>=50% AEC reduction at Week 16), Week 12, zero value replaced with 5 cells", "value": "0.01(a)"},
      {"measurement": "AEC Result", "setting": "Subject 10001-001-0002 (>=50% AEC reduction at Week 16), Week 16", "value": 0, "unit": "cells/uL"},
      {"measurement": "AEC Ratio to Baseline", "setting": "Subject 10001-001-0002 (>=50% AEC reduction at Week 16), Week 16, zero value replaced with 5 cells", "value": "0.01(a)"},
      {"measurement": "AEC Ratio to Baseline", "setting": "[6]", "value": 0.70},
      {"measurement": "AEC Result", "setting": "[6]", "value": 218, "unit": "cells/uL"},
      {"measurement": "AEC Ratio to Baseline", "setting": "[7]", "value": 1.08},
      {"measurement": "AEC Result", "setting": "[7]", "value": 336, "unit": "cells/uL"},
      {"measurement": "AEC Ratio to Baseline", "setting": "[8]", "value": 1.90},
      {"measurement": "AEC Result", "setting": "[8]", "value": 589, "unit": "cells/uL"},
      {"measurement": "AEC Ratio to Baseline", "setting": "[9]", "value": 1.24},
      {"measurement": "AEC Result", "setting": "[9]", "value": 384, "unit": "cells/uL"},
      {"measurement": "AEC Ratio to Baseline", "setting": "[10]", "value": 0.94},
      {"measurement": "AEC Result", "setting": "[10]", "value": 388, "unit": "cells/uL"},
      {"measurement": "AEC Ratio to Baseline", "setting": "[11]", "value": 0.96},
      {"measurement": "AEC Result", "setting": "[11]", "value": 396, "unit": "cells/uL"},
      {"measurement": "AEC Ratio to Baseline", "setting": "[12]", "value": 0.56},
      {"measurement": "AEC Result", "setting": "[12]", "value": 231, "unit": "cells/uL"},
      {"measurement": "AEC Ratio to Baseline", "setting": "[13]", "value": 0.64},
      {"measurement": "AEC Result", "setting": "[13]", "value": 266, "unit": "cells/uL"},
      {"measurement": "AEC Ratio to Baseline", "setting": "[14]", "value": 1.51},
      {"measurement": "AEC Result", "setting": "[14]", "value": 724, "unit": "cells/uL"},
      {"measurement": "AEC Ratio to Baseline", "setting": "[15]", "value": 0.19},
      {"measurement": "AEC Result", "setting": "[15]", "value": 90, "unit": "cells/uL"},
      {"measurement": "AEC Ratio to Baseline", "setting": "[16]", "value": 0.01},
      {"measurement": "AEC Result", "setting": "[16]", "value": 6, "unit": "cells/uL"},
      {"measurement": "AEC Ratio to Baseline", "setting": "[17]", "value": 0.01},
      {"measurement": "AEC Result", "setting": "[17]", "value": 6, "unit": "cells/uL"},
      {"measurement": "AEC Ratio to Baseline", "setting": "[18]", "value": 1.23},
      {"measurement": "AEC Result", "setting": "[18]", "value": 676, "unit": "cells/uL"},
      {"measurement": "AEC Ratio to Baseline", "setting": "[19]", "value": 1.07},
      {"measurement": "AEC Result", "setting": "[19]", "value": 589, "unit": "cells/uL"},
      {"measurement": "AEC Ratio to Baseline", "setting": "[20]", "value": 0.62},
      {"measurement": "AEC Result", "setting": "[20]", "value": 342, "unit": "cells/uL"},
      {"measurement": "AEC Ratio to Baseline", "setting": "[21]", "value": 0.77},
      {"measurement": "AEC Result", "setting": "[21]", "value": 192, "unit": "cells/uL"},
      {"measurement": "AEC Ratio to Baseline", "setting": "[22]", "value": 0.77},
      {"measurement": "AEC Result", "setting": "[22]", "value": 192, "unit": "cells/uL"},
      {"measurement": "AEC Ratio to Baseline", "setting": "[23]", "value": 0.04},
      {"measurement": "AEC Result", "setting": "[23]", "value": 9, "unit": "cells/uL"},
      {"measurement": "AEC Ratio to Baseline", "setting": "[24]", "value": 0.39},
      {"measurement": "AEC Result", "setting": "[24]", "value": 98, "unit": "cells/uL"},
      {"measurement": "AEC Observed, Geometric Mean ± GSE", "setting": "Week 4", "value": "353.3 ± 1.22", "unit": "cells/uL"},
      {"measurement": "AEC Observed, Max", "setting": "Week 4", "value": 724, "unit": "cells/uL"},
      {"measurement": "AEC Observed, Median", "setting": "Week 4", "value": 298.0, "unit": "cells/uL"},
      {"measurement": "AEC Observed, Min", "setting": "Week 4", "value": 192, "unit": "cells/uL"},
      {"measurement": "AEC Observed, Q1", "setting": "Week 4", "value": 218, "unit": "cells/uL"},
      {"measurement": "AEC Observed, Q3", "setting": "Week 4", "value": 676, "unit": "cells/uL"},
      {"measurement": "AEC Ratio to baseline, Geometric Mean ± GSE", "setting": "Week 4", "value": "0.911 ± 1.1189"},
      {"measurement": "AEC Ratio to baseline, Max", "setting": "Week 4", "value": 1.51},
      {"measurement": "AEC Ratio to baseline, Median", "setting": "Week 4", "value": 0.799},
      {"measurement": "AEC Ratio to baseline, Min", "setting": "Week 4", "value": 0.70}
    ]}
  ]
}
